melting point [°C] | SMILES
99 to 101 | CCNC(=O)c1cccc(NCC(=O)NCCc2ccc(OC)c(OC)c2)c1
120 to 122 | OC1CCN(c2nc(-c3ccccc3)cc(-c3ccc4c(c3)OCO4)n2)CC1
123 | CC(C)(C)OC(=O)C[C@H](NC(=O)CNC(=O)c1csc(NC(=O)NCc2ccccc2)n1)C(=O)NCc1ccccc1
132 to 133 | CC(=O)NC1CCCCC1Sc1ccccc1 (centres undefined)
252 to 254 | N#Cc1cccc2c1S(=O)(=O)c1ccccc1C2=O
133 to 134 | COc1cc(C(C)C)c2c(c1)S(=O)(=O)N(COc1cc(C(F)(F)F)nn1-c1ncccn1)C2=O
165 to 170 | COC(=O)Nc1ccccc1-c1c(C(=O)OC)c2cc(OC)c(OC)cc2c(=O)n1C
151 to 153 | O=Cc1c(O)cccc1OCCCC(=O)O
144 to 146 | Cc1noc(C)c1CON1C(=O)c2ccccc2C1=O
153 to 154 | C=CCNc1c([N+](=O)[O-])cc(C(=O)OC)c(Nc2ccc(I)cc2F)c1F
173 to 174 | CCOC(=O)c1c(-c2ccccc2Cl)c2cc(C(C)C)ccc2[nH]c1=O
> 250 | CNC(=O)c1ccccc1Nc1nc(Nc2cc3c(cc2OC)CC(=O)NCC3)ncc1Cl
53 to 55 | CCOC(=O)c1noc2ccccc12
168 to 169 | CC(=O)N1c2c(ccn3cc(C)nc23)C(=O)C(OC(=O)C(C)(C)C)C1c1ccccc1 (centres undefined)
90 to 91 | CCOc1cccc(CC(=O)O)c1OCCn1cc(C(=O)NCc2ccc(Cl)cc2Cl)c(OC(C)C)n1
210 to 212 | COC(=O)c1cc(=NS(=O)(=O)c2ccc(C)cc2)c2c(Cl)cc(Cl)cc2[nH]1
189 to 190 | COc1ccc(Cl)cc1CNc1nc(Cl)nc2c1ncn2[C@@H]1SC[C@@H](O)[C@H]1O
148 to 150 | CC(C)Oc1cccc2oc(C(=O)O)cc12
164 to 165 | Cn1cc(C(=O)Nc2ccccc2-c2ccc(C(F)(F)F)cc2)c(C(F)F)n1
216 | O=C(O)c1ccccc1NC(C(=O)O)c1ccc(Br)cc1 (centres undefined)
129 | CCOC(=O)C1=C(C)N(CCOC(=O)c2ccccc2)C(=O)NC1c1ccccc1 (centres undefined)
146 to 148 | COc1ccc(C(=O)NNC(C)=O)cc1
108 | CC(C)(CO)NS(=O)(=O)c1ccc(Cl)c(N)c1
120 to 123 | COc1ccc(C(O)CN(Cc2ccccc2)Cc2ccccc2)cc1C(N)=O (centres undefined)
54 to 55 | COC(=O)/C=C/C(=O)/C=C/c1ccc(OC)cc1
164 to 165 | CC(=O)NCCn1cccc1C1=CC(=O)c2ncccc2C1=O
138 to 139 | CCOC(=O)CCc1c(-c2ccccc2)c2cc(C)c(C)cc2c(=O)n1C
53 to 55 | CN(C=O)[C@@H]1CCCc2ccccc21

melting point [°C] | SMILES
123 to 125 | CCCCCS(=O)(=O)NC(=O)/C=C/c1ccc(OCCOC)cc1Oc1ncc(C(F)(F)F)cc1Cl
80 to 82 | C=CCOc1ccccc1/C=C\C(=O)O
189 to 199 | COc1cc(CC(=O)O)cc2c1C(=O)c1ccccc1CC2
114 to 116 | COCC1CN(c2ccc(C3CCC(=O)CC3)cc2)C(=O)O1 (racemic)
91 to 92 | COC(=O)N1C(=O)[C@H](O)[C@@H]1c1ccccc1
83 to 84.5 | CC(=O)n1nc(-c2ccccc2)cc1Sc1ccccc1
195 to 196 | O=c1c(Cl)c(S(=O)(=O)C2CCCCC2)cnn1-c1ccccc1
161 to 165 | CN(O)C(=O)C(=O)c1ccc(OCCOc2ccc3ccccc3c2)cc1
121 to 124 | COc1nc(NC(=O)NS(=O)(=O)c2ccccc2OC(F)F)nc(C2CC2)n1
108 to 110 | N#CC1(O)COc2ccccc2OC1
158 | Nc1ccc(C2CC2)cc1C(=O)O
94 | COc1nc2cccccc-2n1
245 to 246 | Cc1cccc(-c2[nH]c(C(C)C)nc2-c2ccc(F)c(-c3ccc(S(N)(=O)=O)cc3)c2)n1
178 to 180 | CC(C)(C)OC(=O)NCc1ccc(Nc2ncc(Br)cc2[N+](=O)[O-])cc1
327 to 334 | COc1ccc2ncc(CO)c(O)c2c1
180 to 181 | Cc1c(NC(=O)c2ccc(OCc3ccccc3)cc2F)ccc2cc(CN3CCCCC3)cnc12
154 to 156 | CC(=O)Oc1ccc(C(=O)N2CCNC2=O)cc1OC(C)=O
134 to 136 | CCOCc1nc2c(N)nc3cc(-c4ccccc4)cnc3c2n1CCCON=C(C)C
171 to 172 | O=C(Nc1noc2ccccc12)N1CCN(c2nc(-c3ccccc3)co2)CC1
127 to 130 | COC(=O)c1cscc1NC(=O)COc1ccc(-c2ccc(F)cc2)cc1
126 | CC(C)(C)NC(=O)[C@@H]1C[C@@H]2CCCC[C@@H]2CN1C[C@@H](O)[C@H](Cc1ccccc1)NC(=O)[C@@H](Nc1nc(CO)cs1)C(C)(C)S(C)(=O)=O
201 to 203 | CN(Cc1ccc(COc2cccc3c2CN(C2CCC(=O)NC2=O)C3=O)cc1)c1ccccc1 (centres undefined)
162 to 165 | O=C(CC1CCCC1)Nc1ccc2cccc(O)c2c1
200 to 202 | CS(=O)(=O)c1ccc(/C(=C\C2CCCC2)C(=O)O)cc1
242 to 244 | Cc1ccc(C(=O)c2sc(Nc3ccc(S(N)(=O)=O)cc3)nc2N)c(C)c1
107 to 108 | O=C1CCOc2ccc(OCc3ccccc3)cc21
214 to 215 | COC(=O)C1=C(C)NC(C)=C(C(=O)OC)C1c1cccc(N)c1

The next lines start with the molecule.

SMILES | melting point [°C]
Cc1c(CCC(=O)O)ccc2c3ccccc3n(Cc3ccccc3)c12 | 160 to 162
Cc1cccc(OCCCN2CCC(C(O)(c3ccc(F)cc3)c3ccc(F)cc3)CC2)c1 | 112 to 114
CCCCCCNC(=O)C=C(C)C=CC=C(C)C=Cc1c(C)cc(OC)c(C)c1C | 157 to 158
CCOC(=O)c1c(C)[nH]c(CC)c1CC | 104 to 106
ON=c1cc(-c2cc3cccn3cn2)oc2ccc(OCCc3cccc(C(F)(F)F)c3)cc12 | 217 to 218
O=C1C=c2c(c3c4ccccc4[nH]c3c3[nH]c4ccccc4c23)=N1 | > 320
NS(=O)(=O)C1CCCCC1=O (centres undefined) | 118 to 119
O=C(O)c1ccc(Cc2cc3cc(Cl)ccc3n2S(=O)(=O)c2ccc3c(c2)OCCO3)s1 | 196
CC=CCn1c(C)c(C)c2cnnc(CCc3ccc(F)cc3F)c21 | 114 to 118
CCOc1cc2cc(CO)c(CO)c(-c3ccnc(Br)c3)c2cc1OC | 156 to 157
NC(=O)c1ccc(C=CC(=O)N2CCc3c([nH]c4ccccc34)C2c2ccc3c(c2)OCO3)cc1 (centres undefined) | 183
CC(C)(C)c1ccc(-c2cc(C(=O)/C=C/c3ccc(C(=O)O)cc3)cc3c2C(C)(C)CCC3(C)C)cc1 | 241
O=C(O)/C=C/C=C(c1cccc(Cl)c1)c1cccc(Cl)c1 | 142 to 145
CCc1nc2c(N)nc3cc(CCCN)ccc3c2n1CC1CCOCC1 | 217 to 220
CC(O)C(CCCc1ccccc1)n1cnc(C(N)=O)c1N (centres undefined) | 132
O=C[C@H](Cc1c[nH]c2ccccc12)NC(=O)[C@H](Cc1ccccc1)NC(=O)OCc1ccccc1 | 74 to 77
O=C(CBr)OCC1OC(Sc2ccccc2)C(OCc2ccccc2)C(OCc2ccccc2)C1OCc1ccccc1 (centres undefined) | 85 to 87
CCC(O)(c1ccc(O)cc1O)c1ccccc1C(F)(F)F (centres undefined) | 143 to 144
COC(=O)c1cc(-c2cc(C)[nH]c2C)nn1C | 63 to 65
CC(=O)c1c(O)c(C(C)=O)c(C(C)=O)c2c1Oc1cc(O)ccc1N2 | 208
NC(=O)Cn1ccc(-c2ccc(Oc3ccc(F)cc3)cc2)n1 | 145
Cc1ccccc1Cn1c(OCc2ccccc2)noc1=O | 77 to 78

SMILES | melting point [°C]
Nc1cc2nc(C(=O)O)c(=O)[nH]c2cc1[N+](=O)[O-] | 300
COc1c(C(O)c2ncc([N+](=O)[O-])n2C)cc(O)cc1C(C)(C)C (centres undefined) | 125 to 128
CCC(C)COC(=O)Cn1cccc1-c1nc(-c2ccc(OC)cc2)c(-c2ccc(OC)cc2)s1 (centres undefined) | 81.5 to 84.5
CCC12CCC(=O)C=C1c1c(cc(OCC(=O)OCC(O)CO)c(Cl)c1Cl)C2 (centres undefined) | 135 to 138
FC(F)(F)c1ccc(OC2(c3ccccc3)CCNCC2)cc1 | 104 to 105
CC1=C2OC(C)(C)OC2CC(C)(C)C1=O (centres undefined) | 79 to 80
O=c1[nH]c2ccc(Cl)cc2n1CCCN1CCC(O)(c2ccc(Cl)cc2)CC1 | 181
O=[N+]([O-])c1ccc2c(ccn2Cc2ccncc2)c1 | 134 to 136
Cc1nc(N)n(C)c(=O)c1CCN1CCN(c2noc3ccccc23)CC1 | 201
CC(C)CCc1c(-c2ccc(S(C)(=O)=O)cc2)cnn(-c2ccc(F)c(Cl)c2)c1=O | 55 to 58
CC(=O)C(=NO)c1ccc(OC[Si](C)(C)c2ccc(F)cc2)cc1 | 115 to 117
CN(C(=O)c1ccc(N2CCOCC2)cc1)[C@@H]1CCN(C(=O)C2CCN(C(=O)C3(O)CC3)CC2)C[C@H]1c1ccc(Cl)c(Cl)c1 | 151 to 153
CCCc1nc2c(N)nc3cc(C)ccc3c2s1 | 186 to 187
CC(C)(C)OC(=O)NNCc1cccc(C#N)c1 | 75 to 80
O=C(O)CC1(CCCCCCCCCCCC2(C(=O)O)CC2)CC1 | 75.3 to 78.9
Cc1cccc2c1N(CC(=O)N1CC3CCC(CC3)C1)CC(NC(=O)Nc1cccc(Br)c1)N=C2c1ccccc1F (centres undefined) | > 250
COc1cc(CC(=O)NCCCc2ccc(C)c(C)c2)ccc1OCCN1CCNCC1 | 92 to 94
CCCCCCCC(=O)NCCCCOS(C)(=O)=O | 59 to 60
CC(C)c1ccccc1N1/C(=N\N=C/c2ccc(-c3ncn(-c4ccc(OC(F)(F)F)cc4)n3)cc2)SCC1(O)C(F)(F)F (centres undefined) | 185 to 187
Fc1ccc(N2CCN(CCCOc3ccc(-c4nnco4)cc3)CC2)cc1 | 157 to 158
O=C(Nc1ccc(Cl)c2c(Cl)ccnc12)c1c(Cl)cccc1Cl | 243 to 247
OC[C@@H](O)CCc1ccccc1 | 34 to 36

Source: a melting point compilation (Tetko et al.; mined from patent text by program, amines drawn as free bases though some values may be those of a salt)
